# Literature values, collected in patent US20110123575A1, “MODIFIED RELEASE NIACIN FORMULATIONS” (DR. REDDY'S LABORATORIES LTD., priority 2008, published 2011).
# Details: white, crystalline powder
smiles,measurement,value
"O=C(O)c1cccnc1 [Niacin, 3-pyridinecarboxylic acid]",solubility in water,very soluble in water
